Laboratory results from patent publication US20260297060A1, “COMPOUNDS FOR THE DEGRADATION OF MUTANT BRAF” (C4 THERAPEUTICS, INC., priority 2023, published 2026).
Where two headings read alike, the source gives them in different places.

Test: Pharmacokinetics in female BALB/c nude mice bearing A375 xenografts, 1 day dosing (PK and PD study): plasma, tumor and brain concentrations, AUC
Type: in vivo
Details: mouse, po
Source text: The concentrations of Dabrafenib, Compound 26 and Compound 141 in the treatment of female BALB/c nude mice bearing A375 xenografts are shown in Table 62-Table 72 and FIG. 52-FIG. 73.

[1] = plasma, 3 mg/kg, 3 mg/kg p.o. BID × 1 day, post 1st dose, read-out: Mean Concentration in Plasma ± SEM
[2] = plasma, 3 mg/kg, 3 mg/kg p.o. BID × 1 day, post 2nd dose, read-out: Mean Concentration in Plasma ± SEM
[3] = plasma, 6 mg/kg, 6 mg/kg p.o. QD × 1 day, read-out: Mean Concentration in Plasma ± SEM
[4] = plasma, 10 mg/kg, 10 mg/kg p.o. BID × 1 day, post 1st dose, read-out: Mean Concentration in Plasma ± SEM
[5] = plasma, 10 mg/kg, 10 mg/kg p.o. BID × 1 day, post 2nd dose, read-out: Mean Concentration in Plasma ± SEM
[6] = tumor, 1.5 mg/kg, 1.5 mg/kg p.o. BID × 1 day, post 2nd dose, read-out: Mean Concentration in Tumor ± SEM
[7] = tumor, 2 mg/kg, 2 mg/kg p.o. TID × 1 day, post 3rd dose, read-out: Mean Concentration in Tumor ± SEM
[8] = tumor, 3 mg/kg, 3 mg/kg p.o. BID × 1 day, post 2nd dose, read-out: Mean Concentration in Tumor ± SEM
[9] = tumor, 6 mg/kg, 6 mg/kg p.o. QD × 1 day, read-out: Mean Concentration in Tumor ± SEM
[10] = tumor, 10 mg/kg, 10 mg/kg p.o. BID × 1 day, post 2nd dose, read-out: Mean Concentration in Tumor ± SEM

## CCN(C)S(=O)(=O)Nc1ccc(F)c(Oc2ccc3ncn([C@H]4COC5(CCN(C6CC7(C6)CN(c6cc8c(cc6F)c(N6CCC(=O)NC6=O)nn8C)C7)CC5)C4)c(=O)c3c2)c1C#N [Compound 26, (3R)-3-[6-[2-cyano-3-[[ethyl(methyl)sulfamoyl]amino]-6-fluoro-phenoxy]-4-oxo-quinazolin-3-yl]-8-[2-[3-(2,4-dioxohexahydropyrimidin-1-yl)-5-fluoro-1-methyl-indazol-6-yl]-2-azaspiro[3.3]heptan-6-yl]-1-oxa-8-azaspiro[4.5]decane]
[1]
  concentration at 4 h: 3060 ± 172 ng/mL
  concentration at 8 h: 645 ± 24.7 ng/mL
  concentration at 12 h: 527 ± 130 ng/mL
[2]
  concentration at 0.25 h: 1380 ± 113 ng/mL
  concentration at 0.5 h: 2880 ± 325 ng/mL
  concentration at 1 h: 4920 ± 1060 ng/mL
  concentration at 2 h: 5290 ± 1110 ng/mL
  concentration at 4 h: 2590 ± 422 ng/mL
  concentration at 10 h: 1500 ± 194 ng/mL
  concentration at 24 h: 20.5 ± 4.61 ng/mL
  concentration at 36 h: 1.58 ng/mL
  concentration at 48 h: 0.968 ± 0.0751 ng/mL
[3]
  concentration at 0.25 h: 3250 ± 159 ng/mL
  concentration at 0.5 h: 7680 ± 353 ng/mL
  concentration at 1 h: 15200 ± 186 ng/mL
  concentration at 2 h: 11600 ± 1450 ng/mL
  concentration at 4 h: 6670 ± 1110 ng/mL
  concentration at 8 h: 5720 ± 1940 ng/mL
  concentration at 10 h: 3110 ± 682 ng/mL
  concentration at 24 h: 185 ± 109 ng/mL
  concentration at 36 h: 3.87 ± 0.735 ng/mL
  concentration at 48 h: 1.07 ng/mL
[4]
  concentration at 0.25 h: 7140 ± 1960 ng/mL
  concentration at 0.5 h: 17400 ± 1470 ng/mL
  concentration at 1 h: 25400 ± 10500 ng/mL
  concentration at 2 h: 18800 ± 3020 ng/mL
  concentration at 4 h: 7890 ± 2010 ng/mL
  concentration at 8 h: 2920 ± 468 ng/mL
  concentration at 12 h: 964 ± 248 ng/mL
[5]
  concentration at 0.25 h: 6220 ± 623 ng/mL
  concentration at 0.5 h: 12800 ± 1590 ng/mL
  concentration at 1 h: 27000 ± 3530 ng/mL
  concentration at 2 h: 20200 ± 1540 ng/mL
  concentration at 4 h: 17100 ± 3470 ng/mL
  concentration at 10 h: 4640 ± 318 ng/mL
  concentration at 24 h: 143 ± 29.1 ng/mL
  concentration at 36 h: 10.7 ± 2.46 ng/mL
  concentration at 48 h: 10.6 ± 9.23 ng/mL
plasma, 1.5 mg/kg p.o. BID × 1 day, read-out: Plasma AUC at 24 hours, Average
  AUC at 24 h: 27600 ng·h/mL
plasma, 2 mg/kg p.o. TID × 1 day, read-out: Plasma AUC at 24 hours, Average
  AUC at 24 h: 41800 ng·h/mL
plasma, 3 mg/kg p.o. BID × 1 day, read-out: Plasma AUC at 24 hours, Average
  AUC at 24 h: 60200 ng·h/mL
plasma, 6 mg/kg p.o. QD × 1 day, read-out: Plasma AUC at 24 hours, Average
  AUC at 24 h: 85100 ng·h/mL
plasma, 10 mg/kg p.o. BID × 1 day, read-out: Plasma AUC at 24 hours, Average
  AUC at 24 h: 224000 ng·h/mL
[6]
  concentration at 1 h: 164 ± 31.1 ng/g
  concentration at 4 h: 552 ± 24.7 ng/g
  concentration at 10 h: 246 ± 46.4 ng/g
  concentration at 24 h: 28.3 ± 21.8 ng/g
  concentration at 48 h: 5.63 ng/g
[7]
  concentration at 1 h: 617 ± 49.7 ng/g
  concentration at 4 h: 905 ± 48.2 ng/g
  concentration at 10 h: 667 ± 154 ng/g
  concentration at 24 h: 12 ± 2.59 ng/g
[8]
  concentration at 0.25 h: 197 ± 15.3 ng/g
  concentration at 0.5 h: 289 ± 31.1 ng/g
  concentration at 1 h: 581 ± 107 ng/g
  concentration at 2 h: 1230 ± 452 ng/g
  concentration at 4 h: 1060 ± 233 ng/g
  concentration at 10 h: 630 ± 39.9 ng/g
  concentration at 24 h: 24.7 ± 7.5 ng/g
  concentration at 48 h: 7.94 ng/g
[9]
  concentration at 1 h: 882 ± 157 ng/g
  concentration at 4 h: 2070 ± 259 ng/g
  concentration at 10 h: 1320 ± 333 ng/g
  concentration at 24 h: 89.1 ± 25.7 ng/g
  concentration at 48 h: 24.2 ng/g
[10]
  concentration at 1 h: 3500 ± 219 ng/g
  concentration at 4 h: 4160 ± 413 ng/g
  concentration at 10 h: 2060 ± 207 ng/g
  concentration at 24 h: 624 ± 438 ng/g
  concentration at 48 h: 81.6 ng/g
tumor, 1.5 mg/kg p.o. BID × 1 day, read-out: Tumor AUC at 24 hours, Average
  AUC at 24 h: 5750 ng·h/mL
tumor, 2 mg/kg p.o. TID × 1 day, read-out: Tumor AUC at 24 hours, Average
  AUC at 24 h: 11900 ng·h/mL
tumor, 3 mg/kg p.o. BID × 1 day, read-out: Tumor AUC at 24 hours, Average
  AUC at 24 h: 13300 ng·h/mL
tumor, 6 mg/kg p.o. QD × 1 day, read-out: Tumor AUC at 24 hours, Average
  AUC at 24 h: 25800 ng·h/mL
tumor, 10 mg/kg p.o. BID × 1 day, read-out: Tumor AUC at 24 hours, Average
  AUC at 24 h: 56700 ng·h/mL
